Results published in article PMC5444726, “A CD44-specific peptide, RP-1, exhibits capacities of assisting diagnosis and predicting prognosis of gastric cancer” (Oncotarget, 2017).

Columns and labels:
[1] = system: CD44 on MKN-28-CD44-ox cells; assay: Confocal immunofluorescence of peptide binding to CD44-overexpressing MKN-28 cells; type: cell-based, human; details: 100 μM Alexa Fluor 594 labeled peptide, 20 min, fixed cells, confocal microscopy
Description: Plasmids containing cDNA of CD44 protein were synthesized by GENECHEM, Shanghai, China. Using Pfu polymerase and two oligonucleotides ([…] and […]), the CD44 cDNA was cloned into Xhol and ECOR1 sites of GV146 (GENECHEM, Shanghai, China) by recombinant PCR. Then, CD44-negative MNK-28 cells were transfected with the plasmid with Lipofectamine 2000 reagent (Invitrogen, California, USA), and then the efficiency of CD44 expression in MKN-28 cells was tested. Finally, two cell lines were generated as following: MKN-28-con with no CD44 expression and MKN-28-CD44-ox with CD44 overexpression labeled with enhanced green fluorescent protein (EGFP).
For the preparation of confocal laser microscopy, the transfected MNK-28 cancer cells were washed with phosphate buffer saline (PBS) three times, then fixed with 4% paraformaldehyde at ambient temperature for 30 min, and blocked with 5% BSA (w/v) in PBS at 37°C for 1 h. The blocked cells were sequentially incubated with 100 μM RP-1 or WYP labeled with Alexa Fluor 594 for 20 min, and counterstained with 4,6-diamidino-2-phenylindole (DAPI). […] For the evaluation of the correlation of fluorescent intensities between CD44-EGFP and RP-1-Fluor 594, a semi-quantitative analysis was performed with ImageJ 1.48v software (National Institutes of Health, Maryland, USA) by randomly selecting and observing 10 fields of vision. […]

CD44 protein = details: peptide screened from 12-mer phage peptide library; ref [25]; cited from earlier work
Text: The purpose of the current study was to validate the specificity and affinity of RP-1 in both in vitro and in vivo experiment ...

[2] = system: SGC-7901 subcutaneous xenograft; assay: In vivo fluorescence imaging and biodistribution in SGC-7901 xenograft mice
Description: All animal procedures were approved by the Ethics Committee of Xi’an Jiaotong University and conducted in accordance with the Helsinki Declaration (1975). Athymic nude mice (male, 4–5 weeks old, with a body weight of 20–25 g) were obtained from the Animal Experiment Center of Xi’an Jiaotong University, Xi’an, China. The SGC-7901 tumor xenografts were generated by subcutaneous injection of 5–8 × 10^6 SGC-7901 cells suspended in 200 μL culture medium into the left axilla of mice. The cells were allowed to grow for 2 weeks until tumor volume reached an estimate of 1 cm^3.
In vivo fluorescence imaging was performed with the IVIS Spectrum Imaging System and analyzed with the IVIS Living Imaging 4.2 software (Xenogen, California, USA). Identical imaging settings (exposure time: 40s; binning: 16; lens aperture [f/stop]: 4; field of view: 13.3) were used for capturing images. Fluorescent intensity was normalized and presented as (p/sec/cm^2/sr)/(μW/cm^2). The mice from the experimental group (n = 10) and control group (n = 10) were intravenously injected with 1 mg/kg FITC-RP-1 and FITC-WYP, respectively. Mice anesthetized with isoflurane were subjected to optical imaging at each hour since 1h after injection. Finally, solid tumors, tissues, and organs were all harvested and rinsed with PBS for further analysis of the distribution of FITC-RP-1.

[3] = excised tissue, 3 h after i.v. FITC-RP-1, 1 μg/g

## WHPWSYLWTQQA [RP-1]
[1]
  binding of peptide to CD44 on the cell membrane: apparent binding of RP-1 peptides to CD44 on the cell membrane
CD44 protein
  binding to CD44 protein: can specifically bind to CD44 protein
[2]; 3 h after i.v. injection of FITC-labeled peptide, 1 μg/g
  organs with accumulation (fluorescence of excised tissues): accumulation of RP-1 in tumor tissue and liver
[2]; 6 h after intravenous injection
  fluorescence signal remaining (elimination): almost undetectable
[2]; [3]
  fluorescent intensity, kidney: 2.00 × 10^8 (p/sec/cm^2/sr) /(μW/cm^2)
  fluorescent intensity, liver: 5.58 × 10^8 (p/sec/cm^2/sr) /(μW/cm^2)
  fluorescent intensity, stomach: 2.28 × 10^8 (p/sec/cm^2/sr) /(μW/cm^2)
[2]; excised tissue, 3 h after i.v. FITC-RP-1, 1 μg/g, tumor vs other organs P < 0.001
  fluorescent intensity, tumor: 1.14 × 10^9 (p/sec/cm^2/sr) /(μW/cm^2)
